tested on: up-regulation of ICAM-1 (CD54) by IFNγ in A549 lung epithelial cells; assay: A549 Epithelial Line Stimulated with IFNγ (ICAM-1 surface expression, FACS); format: cell-based, human; settings: Homo sapiens, A549, A549 cells stimulated with IFNγ, ICAM-1 expression by FACS; read-out: IC50, Example 43
Description: The activity of the compounds of the invention may additionally be characterized by assaying the effect of the 2,4-substituted pyrimidinediamine compounds described herein on A549 lung epithelial cells and U937 cells. A549 lung epithelial cells and U937 cells up-regulate ICAM-1 (CD54) surface expression in response to a variety of different stimuli. Therefore, using ICAM-1 expression as readout, test compound effects on different signaling pathways can be assessed in the same cell type. Stimulation with IL-1β through the IL-1β receptor activates the TRAF6/NFκB pathway resulting in up-regulation of ICAM-1. IFNγ induces ICAM-1 up-regulation through activation of the JAK1/JAK2 pathway. The up-regulation of ICAM-1 can be quantified by flow cytometry across a compound dose curve and EC50, values are calculated. An exemplary assays of this type are described in greater detail in Examples 43 and 44
A549 lung epithelial cells up-regulate ICAM-1 (CD54) surface expression in response to a variety of different stimuli. Therefore, using ICAM-1 expression as readout, compound effects on different signaling pathways can be assessed in the same cell type. IFNγ up-regulates ICAM-1 through activation of the JAK/Stat pathway. In this example, the up-regulation of ICAM-1 by IFNγ was assessed.
The A549 lung epithelial carcinoma cell line originated from the American Type Culture Collection. Routine culturing was with F12K media (Mediatech Inc., Lenexa, KS, Cat. No. 10-025-CV) with 10% fetal bovine serum, 100 I.U. penicillin and […] streptomycin (complete F12k media). Cells were incubated in a humidified atmosphere of 5% CO2 at 37° C. Prior to use in the assay, A549 cells were washed with PBS and trypsinized (Mediatech Inc., Cat. No. 25-052-CI) to lift the cells. The trypsin cell suspension was neutralized with complete F12K media and centrifuged to pellet the cells. The cell pellet was resuspended in complete F12K media at a concentration of 2.0×10^5/mL. Cells were seeded at 20,000 per well, 100 μL total volume, in a flat bottom tissue culture plate and allowed to adhere overnight.
On day two, A549 cells were pre-incubated with a 2,4-substituted pyrimidinediamine test compound or DMSO (control) (Sigma-Aldrich, St. Louis, MO, Catalog No. D2650) for 1 hour. The cells were then stimulated with IFNγ (75 ng/mL) (Peprotech Inc., Rocky Hill, NJ, Cat. No. 300-02) and allowed to incubate for 24 hours. The final test compound dose range was 30 μM to 14 nM in 200 μL F12K media containing 5% FBS, 0.3% DMSO.
On day three, the cell media was removed and the cells were washed with 200 μL PBS (phosphate buffered saline). Each well was trypsinized to dissociate the cells, then neutralized by addition of 200 μL complete F12K media. Cells were pelleted and stained with an APC conjugated mouse anti-human ICAM-1 (CD54) (BD Pharmingen, San Diego, CA, Catalog #559771) antibody for 20 minutes at 4° C. Cells were washed with ice cold FACS buffer (PBS+2% FBS) and surface ICAM-1 expression was analyzed by flow cytometry. Detection was performed using a BD LSR I System Flow Cytometer, purchased from BD Biosciences of San Jose, California Events were gated for live scatter and the geometric mean was calculated (Becton-Dickinson CellQuest software version 3.3, Franklin Lakes, NJ). Geometric means were plotted against the compound concentration to generate a dose response curve.

IC50 | Structure (SMILES)
26.8 µM | C#CCOc1ccc(Nc2nc(Nc3ccc(C)c(S(=O)(=O)NC)c3)ncc2F)cc1 [VI-68, 5-Fluoro-N2-(4-methyl-3-methylaminosulfonylphenyl)-N4-[4-(prop-2-ynyloxy)phenyl]-2,4-pyrimidinediamine]
24.7 µM | NS(=O)(=O)c1ccc(Nc2ncc(F)c(Nc3ccc(CCCO)cc3)n2)cc1 [VI-85, N2-(4-Aminosulfonylphenyl)-5-fluoro-N4-[4-(3-hydroxypropyl)phenyl]-2,4-pyrimidinediamine]
15 µM | Cc1ccc(Nc2ncc(F)c(Nc3ccc(Cl)c(Cl)c3)n2)cc1S(N)(=O)=O [VI-6, N2-(3-Aminosulfonyl-4-methylphenyl)-N4-(3,4-dichlorophenyl)-5-fluoro-2,4-pyrimidinediamine]
17.1 µM | COc1ccc(Nc2nc(Nc3ccc(C)c(S(N)(=O)=O)c3)ncc2F)nc1N [VII-9, N2-(3-Aminosulfonyl-4-methylphenyl)-N4-[2-amino-3-methoxypyrid-6-yl]-5-fluoro-2,4-pyrimidinediamine]
11.3 µM | C#CCOc1ccc(Nc2nc(Nc3ccc(C)c(S(N)(=O)=O)c3)ncc2F)cc1 [VI-53, N2-(3-Aminosulfonyl-4-methylphenyl)-5-fluoro-N4-[4-(prop-2-ynyloxy)phenyl]-2,4-pyrimidinediamine]
14.7 µM | Cc1ccc(Nc2ncc(F)c(Nc3ccc(O)cc3)n2)cc1S(N)(=O)=O [VI-102, N2-(3-Aminosulfonyl-4-methylphenyl)-5-fluoro-N4-[4-hydroxyphenyl]-2,4-pyrimidinediamine]
5.46 µM | Cc1ccc(Nc2ncc(F)c(Nc3ccc4oc(C#N)cc4c3)n2)cc1S(N)(=O)=O [VII-53, N2-(3-Aminosulfonyl-4-methylphenyl)-N4-(2-cyanobenzofuran-5-yl)-5-fluoro-2,4-pyrimidinediamine]
4.13 µM | C#CCNc1ccc(Nc2nc(Nc3ccc(C)c(S(N)(=O)=O)c3)ncc2F)cc1 [VI-65, N2-(3-Aminosulfonyl-4-methylphenyl)-5-fluoro-N4-[4-(prop-2-ynylamino)phenyl]-2,4-pyrimidinediamine]
4.58 µM | Cc1ccc(Nc2ncc(F)c(Nc3ccc(CCCF)cc3)n2)cc1S(N)(=O)=O [VI-84, N2-(3-Aminosulfonyl-4-methylphenyl)-5-fluoro-N4-[4-(3-fluoropropyl)phenyl]-2,4-pyrimidinediamine]
31 µM | C=Cc1ccc(Nc2nc(Nc3ccc(C)c(S(N)(=O)=O)c3)ncc2F)cc1 [VI-54, N2-(3-Aminosulfonyl-4-methylphenyl)-5-fluoro-N4-(4-vinylphenyl)-2,4-pyrimidinediamine]
9.93 µM | Cc1ccc2cc(Nc3nc(Nc4cccc(S(N)(=O)=O)c4)ncc3F)ccc2n1 [VII-72, N2-(3-Aminosulfonylphenyl)-5-fluoro-N4-(2-methylquinolin-6-yl)-2,4-pyrimidinediamine]
54 µM | N#CCN1C(=O)CSc2ccc(Nc3nc(Nc4cccc(S(N)(=O)=O)c4)ncc3F)cc21 [Compound V-12, N2-(3-Aminosulphonylphenyl)-5-fluoro-N4-(3-oxo-4-cyanomethyl-benzo[1,4]thiazin-6-yl)-2,4-pyrimidinediamine]
3.11 µM | CC#CCOc1ccc(Nc2nc(Nc3ccc(C)c(S(N)(=O)=O)c3)ncc2F)cc1 [VI-61, N2-(3-Aminosulfonyl-4-methylphenyl)-N4-[4-(but-2-ynyloxy)phenyl]-5-fluoro-2,4-pyrimidinediamine]
5.21 µM | Cc1ccc(Nc2ncc(F)c(Nc3ccc4c(c3)N(CC#N)C(=O)CO4)n2)cc1S(N)(=O)=O [Compound V-8, N2-(3-Aminosulphonyl-4-methylphenyl)-5-fluoro-N4-[3-oxo-4-cyanomethyl-benz[1,4]oxazin-6-yl]-2,4-pyrimidinediamine]
8.92 µM | Cc1ccc(Nc2ncc(C)c(Nc3ccc4c(c3)NC(=O)CO4)n2)cc1S(N)(=O)=O [VII-30, N2-(3-Aminosulphonyl-4-methylphenyl)-5-methyl-N4-(3-oxo-benz[1,4]oxazin-6-yl)-2,4-pyrimidinediamine]
6.87 µM | Cc1ccc(Nc2ncc(F)c(Nc3ccc4c(c3)N(CC#N)C(=O)CS4)n2)cc1S(N)(=O)=O [Compound V-13, N2-(3-Aminosulphonyl4-methylphenyl)-5-fluoro-N4-(3-oxo-4-cyanomethyl-benzo[1,4]thiazin-6-yl)-2,4-pyrimidinediamine]
9.12 µM | Cc1ccc(Nc2ncc(F)c(Nc3ccc4c(c3)NC(=O)CS4)n2)cc1S(N)(=O)=O [VII-44, N2-(3-Aminosulphonyl-4-methyl-phenyl)-5-fluoro-N4-(3-oxo-4H-benzo[1,4]thiazin-6-yl)-2,4-pyrimidinediamine]
6.48 µM | NS(=O)(=O)c1cccc(Nc2ncc(F)c(Nc3ccc4ncccc4c3)n2)c1 [VII-70, N2-(3-Aminosulfonylphenyl)-5-fluoro-N4-(quinolin-6-yl)-2,4-pyrimidinediamine]
5.92 µM | Cc1ccc(Nc2ncc(F)c(Nc3ccc(CO)cc3)n2)cc1S(N)(=O)=O [VI-52, N2-(3-Aminosulfonyl-4-methylphenyl)-5-fluoro-N4-(4-hydroxymethylphenyl)-2,4-pyrimidinediamine]
10.5 µM | COc1ccc(Nc2nc(Nc3ccc(C(C)C)c(S(N)(=O)=O)c3)ncc2F)cc1Cl [VI-45, N2-(3-Aminosulfonyl-4-iso-propylphenyl)-N4-(3-chloro-4-methoxy-phenyl)-5-fluoro-2,4-pyrimidinediamine]
3.38 µM | Cc1ccc(Nc2ncc(F)c(Nc3ccc4[nH]cc(CC#N)c4c3)n2)cc1S(N)(=O)=O [IX-14, N2-(3-Aminosulfonyl-4-methylphenyl)-N4-(3-cyanomethyl-1H-indol-5-yl)-5-fluoro-2,4-pyrimidinediamine]
6.42 µM | COc1ccc(Nc2nc(Nc3cc(C)c(Cl)c(S(N)(=O)=O)c3)ncc2F)cc1Cl [VI-17, N2-(3-Aminosulfonyl-4-chloro-5-methylphenyl)-N4-(3-chloro-4-methoxyphenyl)-5-fluoro-2,4-pyrimidinediamine]
8.1 µM | COc1ccc(Nc2nc(Nc3ccc(N4CCN(C)CC4)c(S(N)(=O)=O)c3)ncc2F)cc1Cl [VI-116, N2-[3-Aminosulfonyl-4-(4-methylpiperazine-1-yl)phenyl]-N4-(3-chloro-4-methoxyphenyl)-5-fluoro-2,4-pyrimidinediamine]
5.47 µM | Cc1ccc2cc(Nc3nc(Nc4ccc(C)c(S(N)(=O)=O)c4)ncc3F)ccc2n1 [VII-71, N2-(3-Aminosulfonyl-4-methylphenyl)-5-fluoro-N4-(2-methylquinolin-6-yl)-2,4-pyrimidinediamine]
3.85 µM | C#CCOc1ccc(Nc2nc(Nc3ccc(C)c(S(N)(=O)=O)c3)ncc2F)cc1F [VI-60, N2-(3-Aminosulfonyl-4-methylphenyl)-5-fluoro-N4-[3-fluoro-4-(prop-2-ynyloxy)phenyl]-2,4-pyrimidinediamine]
9.18 µM | NS(=O)(=O)c1cc(Nc2ncc(F)c(Nc3ccc(O)cc3)n2)ccc1F [VI-100, N2-(3-Aminosulfonyl-4-fluorophenyl)-5-fluoro-N4-(4-hydroxyphenyl)-2,4-pyrimidinediamine]
24.7 µM | NS(=O)(=O)c1ccc(Nc2ncc(F)c(Nc3ccc(CCCCO)cc3)n2)cc1 [VI-88, N2-(4-Aminosulfonylphenyl)-5-fluoro-N4-[4-(4-hydroxybutyl)phenyl]-2,4-pyrimidinediamine]
30.3 µM | N#CCc1c[nH]c2ccc(Nc3nc(Nc4cccc(S(N)(=O)=O)c4)ncc3F)cc12 [IX-13, N2-(3-Aminosulfonylphenyl)-N4-(3-cyanomethyl-1H-indol-5-yl)-5-fluoro-2,4-pyrimidinediamine]
8.23 µM | COc1ccc(Nc2nc(Nc3cc(Cl)c(C)c(S(N)(=O)=O)c3)ncc2F)cc1Cl [VI-13, N2-(3-Aminosulfonyl-5-chloro-4-methylphenyl)-N4-(3-chloro-4-methoxyphenyl)-5-fluoro-2,4-pyrimidinediamine]
